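All cell lines were grown in 96-well plates and treated with compound for 48 hours. GI50 = concentration required for 50% inhibition of growth.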 The source made the active and inactive calls. Rule as the data show it: active = GI50 up to about 1.1 µM and inactive = higher.
Columns and labels:
Assay in all cases: DTP human tumour cell line panel, 48 h
KM12 = system: KM12
OVCAR-8 = system: OVCAR-8
NCI/ADR-RES = system: NCI/ADR-RES
SK-MEL-28 = system: SK-MEL-28
SN12C = system: SN12C
SK-MEL-2 = system: SK-MEL-2
SW-620 = system: SW-620
SNB-19 = system: SNB-19
NCI-H460 = system: NCI-H460
UO-31 = system: UO-31
SNB-75 = system: SNB-75
UACC-62 = system: UACC-62
RPMI-8226 = system: RPMI-8226
SF-295 = system: SF-295
A549 = system: A549
TK-10 = system: TK-10
ACHN = system: ACHN

| Compound | GI50 (KM12) | GI50 (OVCAR-8) | GI50 (NCI/ADR-RES) | GI50 (SK-MEL-28) | GI50 (SN12C) | GI50 (SK-MEL-2) | GI50 (SW-620) | GI50 (SNB-19) | GI50 (NCI-H460) | GI50 (UO-31) | GI50 (SNB-75) | GI50 (UACC-62) | GI50 (RPMI-8226) | GI50 (SF-295) | GI50 (A549) | GI50 (TK-10) | GI50 (ACHN) |
| --- | --- | --- | --- | --- | --- | --- | --- | --- | --- | --- | --- | --- | --- | --- | --- | --- | --- |
| CCCCCOc1ccc(/C=N\c2ccc(CCc3ccc(/N=C/c4ccc(OCCCCC)cc4)cc3)cc2)cc1 | > 100 µM (inactive) | > 100 µM (inactive) | > 100 µM (inactive) | > 100 µM (inactive) | > 100 µM (inactive) | > 100 µM (inactive) | > 100 µM (inactive) | > 100 µM (inactive) | > 100 µM (inactive) | > 100 µM (inactive) | > 100 µM (inactive) | > 100 µM (inactive) | > 100 µM (inactive) | > 100 µM (inactive) | > 100 µM (inactive) | – | – |
| Cn1c(=O)c2nc(NCCO)cnc2n(C)c1=O | 27.2 µM (inactive) | > 100 µM (inactive) | – | > 100 µM (inactive) | > 100 µM (inactive) | 26.6 µM (inactive) | 55.6 µM (inactive) | > 100 µM (inactive) | 59.7 µM (inactive) | 48.9 µM (inactive) | 8.73 µM (inactive) | 37.8 µM (inactive) | 66.4 µM (inactive) | 45.3 µM (inactive) | > 100 µM (inactive) | > 100 µM (inactive) | > 100 µM (inactive) |
| CC1=NOC(=O)/C1=C/c1cccc2ccccc12 | > 100 µM (inactive) | > 100 µM (inactive) | – | > 100 µM (inactive) | > 100 µM (inactive) | > 100 µM (inactive) | 54 µM (inactive) | > 100 µM (inactive) | > 100 µM (inactive) | > 100 µM (inactive) | > 100 µM (inactive) | > 100 µM (inactive) | > 100 µM (inactive) | > 100 µM (inactive) | > 100 µM (inactive) | > 100 µM (inactive) | > 100 µM (inactive) |
| Cc1ccccc1NC(=O)C(=O)CC(=O)C1CCOC1=O (centres undefined) | > 100 µM (inactive) | > 100 µM (inactive) | – | > 100 µM (inactive) | > 100 µM (inactive) | > 100 µM (inactive) | > 100 µM (inactive) | > 100 µM (inactive) | > 100 µM (inactive) | > 100 µM (inactive) | > 100 µM (inactive) | > 100 µM (inactive) | > 100 µM (inactive) | > 100 µM (inactive) | > 100 µM (inactive) | > 100 µM (inactive) | > 100 µM (inactive) |
| CCOC(=O)C(=O)CC(=O)C(Br)C(Br)c1ccc(Cl)cc1 (centres undefined) | 57.9 µM (inactive) | 34.9 µM (inactive) | – | 29.7 µM (inactive) | 30.3 µM (inactive) | > 100 µM (inactive) | 39.6 µM (inactive) | 26.4 µM (inactive) | > 100 µM (inactive) | > 100 µM (inactive) | > 100 µM (inactive) | 46 µM (inactive) | 22.3 µM (inactive) | > 100 µM (inactive) | > 100 µM (inactive) | 52.2 µM (inactive) | 36 µM (inactive) |
| CCOC(=O)/C(=C\c1ccc(N(CCC#N)CCC#N)cc1C)NC(=O)/C=C/c1ccccc1 | > 100 µM (inactive) | > 100 µM (inactive) | – | > 100 µM (inactive) | > 100 µM (inactive) | > 100 µM (inactive) | > 100 µM (inactive) | > 100 µM (inactive) | > 100 µM (inactive) | > 100 µM (inactive) | > 100 µM (inactive) | > 100 µM (inactive) | > 100 µM (inactive) | > 100 µM (inactive) | > 100 µM (inactive) | > 100 µM (inactive) | > 100 µM (inactive) |
| CC1(C)O[C@@H](CCl)C[C@H](C#N)O1 | > 100 µM (inactive) | > 100 µM (inactive) | – | > 100 µM (inactive) | > 100 µM (inactive) | > 100 µM (inactive) | > 100 µM (inactive) | > 100 µM (inactive) | > 100 µM (inactive) | > 100 µM (inactive) | > 100 µM (inactive) | > 100 µM (inactive) | > 100 µM (inactive) | > 100 µM (inactive) | > 100 µM (inactive) | > 100 µM (inactive) | > 100 µM (inactive) |
| Cn1ncc2c(Nc3ccc(Cl)cc3)c3ccccc3nc21 | 18.7 µM (inactive) | 14.8 µM (inactive) | – | 15.3 µM (inactive) | 16 µM (inactive) | 18.4 µM (inactive) | 16.6 µM (inactive) | 18 µM (inactive) | 18.7 µM (inactive) | > 10 µM (inactive) | 10.8 µM (inactive) | 15.1 µM (inactive) | 20.1 µM (inactive) | 17.7 µM (inactive) | 15.3 µM (inactive) | 21.4 µM (inactive) | 17 µM (inactive) |
| C=C(C)C1Cc2c(c3ccccc3n(C)c2=O)O1 (centres undefined) | – | > 100 µM (inactive) | – | > 100 µM (inactive) | > 100 µM (inactive) | > 100 µM (inactive) | > 100 µM (inactive) | > 100 µM (inactive) | > 100 µM (inactive) | > 100 µM (inactive) | > 100 µM (inactive) | > 100 µM (inactive) | > 100 µM (inactive) | > 100 µM (inactive) | – | > 100 µM (inactive) | > 100 µM (inactive) |
| Cc1cccc(C(C)C)c1NC(=O)C(=O)C(C(=O)c1ccccc1F)C1OC(=O)c2ccccc21 (centres undefined) | 19.2 µM (inactive) | 16.5 µM (inactive) | – | 14.4 µM (inactive) | 16.6 µM (inactive) | 15.7 µM (inactive) | 24.5 µM (inactive) | 10.8 µM (inactive) | 24.6 µM (inactive) | 16.8 µM (inactive) | 9.75 µM (inactive) | 10.4 µM (inactive) | 4.78 µM (inactive) | – | 37.5 µM (inactive) | 39.6 µM (inactive) | 36.4 µM (inactive) |
| CN(CCO)/N=N/c1[nH]cnc1C(N)=O | > 100 µM (inactive) | 45.7 µM (inactive) | – | > 100 µM (inactive) | > 100 µM (inactive) | 22.5 µM (inactive) | 69.3 µM (inactive) | > 100 µM (inactive) | > 100 µM (inactive) | – | 26.8 µM (inactive) | 83.8 µM (inactive) | > 100 µM (inactive) | 77.8 µM (inactive) | > 100 µM (inactive) | 49.2 µM (inactive) | > 100 µM (inactive) |
| CN(C)CCNC(=O)c1cccc2c(=O)c3ccccc3oc12 | 35.4 µM (inactive) | 27.7 µM (inactive) | 27.6 µM (inactive) | 33.7 µM (inactive) | 24.3 µM (inactive) | 35.9 µM (inactive) | 34.4 µM (inactive) | 36.9 µM (inactive) | 28.2 µM (inactive) | 18.1 µM (inactive) | 32.4 µM (inactive) | 32.2 µM (inactive) | 29.2 µM (inactive) | 30.3 µM (inactive) | 39 µM (inactive) | – | – |
| CCN(CC)CC1CCCCN1CC(=O)N1c2cc(Cl)ccc2NC(=O)CC1C (centres undefined) | > 100 µM (inactive) | > 100 µM (inactive) | – | > 100 µM (inactive) | > 100 µM (inactive) | > 100 µM (inactive) | > 100 µM (inactive) | > 100 µM (inactive) | > 100 µM (inactive) | > 100 µM (inactive) | > 100 µM (inactive) | 55.3 µM (inactive) | > 100 µM (inactive) | – | > 100 µM (inactive) | > 100 µM (inactive) | > 100 µM (inactive) |
| COC(=O)c1nc(NN)cc(O)c1CCCCCc1c(O)nc(NN)nc1C(=O)OC | > 100 µM (inactive) | > 100 µM (inactive) | – | > 100 µM (inactive) | > 100 µM (inactive) | > 100 µM (inactive) | > 59.3 µM (inactive) | > 100 µM (inactive) | > 100 µM (inactive) | > 100 µM (inactive) | > 100 µM (inactive) | > 100 µM (inactive) | 72.4 µM (inactive) | > 100 µM (inactive) | > 100 µM (inactive) | > 100 µM (inactive) | > 100 µM (inactive) |
| CC(C)=CC(=O)CC(=O)C(=O)Nc1ccc(Cl)c(Cl)c1 | > 100 µM (inactive) | > 100 µM (inactive) | – | > 100 µM (inactive) | > 100 µM (inactive) | > 100 µM (inactive) | > 100 µM (inactive) | > 100 µM (inactive) | > 100 µM (inactive) | > 100 µM (inactive) | > 100 µM (inactive) | > 100 µM (inactive) | > 100 µM (inactive) | > 100 µM (inactive) | > 100 µM (inactive) | > 100 µM (inactive) | > 100 µM (inactive) |
| Cc1ccc(-c2nnc(SCC(=O)O)[nH]2)cc1 | > 100 µM (inactive) | > 100 µM (inactive) | – | > 100 µM (inactive) | > 100 µM (inactive) | > 100 µM (inactive) | > 100 µM (inactive) | > 100 µM (inactive) | > 100 µM (inactive) | > 100 µM (inactive) | 78.5 µM (inactive) | > 100 µM (inactive) | > 100 µM (inactive) | > 100 µM (inactive) | > 100 µM (inactive) | > 100 µM (inactive) | > 100 µM (inactive) |
| COc1cc(C2c3cc4c(cc3[C@@H](Nc3ccccc3)C3COC(=O)[C@H]23)OCO4)cc(OC)c1O (some centres undefined) | 1.47 µM (inactive) | 1.18 µM (inactive) | 2.07 µM (inactive) | 2.72 µM (inactive) | 0.485 µM (active) | 2.79 µM (inactive) | 0.792 µM (active) | 0.34 µM (active) | < 0.01 µM (active) | 0.531 µM (active) | 0.875 µM (active) | 0.388 µM (active) | 0.234 µM (active) | 0.171 µM (active) | 0.0156 µM (active) | – | – |

From ChEMBL document CHEMBL1201862, “PubChem BioAssay data set” (2004)
